Drawing on patent US9187472B2 (AbbVie Inc., priority 2012, dated 2015), this text covers IC50 for 25 molecules.

The IC50 is the midpoint of a concentration-inhibition curve.

For assay [1], the system named is PC3 cells. The assay can be described thus: NAMPT Cell Proliferation Assay. Format: cell-based. The following applies: Homo sapiens, PC-3, 120 h, 5 days incubation, cell viability by Cell Titer Glo. Summed up: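 Cell Titer Glo viability after 5-day exposure (37° C, 5% CO2); PC3, 500 cells/well, RPMI + 10% heat-inactivated FBS, overnight attachment before dosing. Dose range 10 μM to 1×10^−5 μM, 10-fold steps. IC50 = sigmoidal fit of % inhibition.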
A general note: In ATP-based viability assays light output follows the ATP content of the culture.

Assay [2] deals with NAMPT (Homo sapiens, UniProt P43490). The assay can be described thus: TR-FRET Binding Assay of NAMPT with PRPP. The following applies: with 200 μM PRPP and 2.5 mM ATP; 2 nM NAMPT, 2 nM probe, 16 hours equilibration. Summed up: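 Run in the presence of substrates (200 μM PRPP, 2.5 mM ATP) with final 2 nM NAMPT, 2 nM probe, 1 nM Tb-anti-His antibody and 2% DMSO. Mixtures equilibrated 16 h before TR-FRET measurement so test compounds could be enzymatically modified.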
For orientation: TR-FRET usually uses a lanthanide donor and a delayed reading to cut background.

The target of assay [3] is NAMPT (human, recombinant, C-terminally His-tagged) (Homo sapiens, UniProt P43490). The assay can be described thus: Time-Resolved Fluorescence Resonance Energy Transfer (TR-FRET) Binding Assay of NAMPT. The following applies: without substrates; 6.8 nM NAMPT, 200 nM probe, 3 hours equilibration. Summed up:
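Probe displacement by compound was measured with 6.8 nM NAMPT, 200 nM Oregon Green 488-conjugated nicotinamide-competitive inhibitor probe and 1 nM Tb-anti-His antibody in 50 mM HEPES pH 7.5, 100 mM NaCl, 10 mM MgCl2, 1 mM DTT, 1% glycerol, 2% DMSO (final). After 3 h at room temperature, TR-FRET was read; IC50 from four-parameter logistic fit.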

NAMPT (human, recombinant, C-terminally His-tagged), sequence (P43490 whole entry): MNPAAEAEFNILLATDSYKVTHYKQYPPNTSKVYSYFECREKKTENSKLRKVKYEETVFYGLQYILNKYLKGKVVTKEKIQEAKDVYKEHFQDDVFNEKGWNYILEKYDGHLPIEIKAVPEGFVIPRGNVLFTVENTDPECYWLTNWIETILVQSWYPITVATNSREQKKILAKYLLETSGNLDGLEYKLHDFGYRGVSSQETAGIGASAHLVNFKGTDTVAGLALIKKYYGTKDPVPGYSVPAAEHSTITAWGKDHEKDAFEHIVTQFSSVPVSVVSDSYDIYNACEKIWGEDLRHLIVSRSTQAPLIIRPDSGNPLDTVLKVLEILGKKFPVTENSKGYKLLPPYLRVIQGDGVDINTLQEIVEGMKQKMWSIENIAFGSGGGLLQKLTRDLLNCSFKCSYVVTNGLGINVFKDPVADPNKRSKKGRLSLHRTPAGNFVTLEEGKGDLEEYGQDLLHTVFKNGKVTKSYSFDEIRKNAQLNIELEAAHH
NAMPT, sequence (P43490 whole entry): as above

As to `O=C(NCc1ccn2ccnc2c1)c1ccc(C2CCN(C(=O)c3cc(F)ccc3F)CC2)cc1` [Example 522, 4-[1-(2,5-difluorobenzoyl)piperidin-4-yl]-N-(imidazo[1,2-a]pyridin-7-ylmethyl)benzamide], the IC50 in assay [1] was 6.73 nM; in assay [2], 0.199 nM; in assay [3] it was 58.1 nM.

Regarding `CC(C)(C)CC(=O)N1CCC(c2ccc(C(=O)NCc3ccn4ccnc4c3)s2)C1` (stereo not drawn) [Example 788, 5-[1-(3,3-dimethylbutanoyl)pyrrolidin-3-yl]-N-(imidazo[1,2-a]pyridin-7-ylmethyl)thiophene-2-carboxamide], the IC50 was 5.44 nM in assay [1], 0.674 nM in assay [2] and 82 nM in assay [3].

On to `O=C(NCc1ccc2nccn2c1)c1cnc(N2CCc3ccccc3C2)s1` [Example 108, 2-(3,4-dihydroisoquinolin-2(1H)-yl)-N-(imidazo[1,2-a]pyridin-6-ylmethyl)-1,3-thiazole-5-carboxamide], for which the IC50 was found to be 7660 nM in assay [1], 1.05 nM in assay [2] and 1770 nM in assay [3].

Turning to `O=C(NCc1ccc2nccn2c1)c1cnc(N(CC2CCCO2)C(=O)Cc2ccon2)s1` (stereo not drawn) [Example 134, N-(imidazo[1,2-a]pyridin-6-ylmethyl)-2-[(1,2-oxazol-3-ylacetyl)(tetrahydrofuran-2-ylmethyl)amino]-1,3-thiazole-5-carboxamide], the 50% inhibitory concentration (IC50) in assay [1] is 6.54 nM; in assay [2], 1.49 nM; in assay [3], 303 nM.

On to `O=C(NCc1ccc2nccn2c1)c1ccc(C2=CCN(C(=O)c3ccccc3)CC2)cc1` [Example 104, 4-(1-benzoyl-1,2,3,6-tetrahydropyridin-4-yl)-N-(imidazo[1,2-a]pyridin-6-ylmethyl)benzamide], for which the IC50 in assay [1] came out at 8.46 nM; in assay [2] it was 2 nM; in assay [3] it was 135 nM.

For the molecule `Cc1ccsc1C(=O)N1CCC(c2ccc(C(=O)NCc3ccn4ccnc4c3)s2)C1` (stereo not drawn) [Example 793, N-(imidazo[1,2-a]pyridin-7-ylmethyl)-5-{1-[(3-methylthiophen-2-yl)carbonyl]pyrrolidin-3-yl}thiophene-2-carboxamide], the figures for the IC50 in assay [1], in assay [2] and in assay [3] were 1.02 nM, 0.398 nM and 23.1 nM, respectively.

As to `O=C(NCc1ccn2ccnc2c1)c1ccc(C2CCN(C(=O)c3cc(F)ccc3F)C2)s1` (stereo not drawn) [Example 785, 5-[1-(2,5-difluorobenzoyl)pyrrolidin-3-yl]-N-(imidazo[1,2-a]pyridin-7-ylmethyl)thiophene-2-carboxamide], the IC50 in assay [1] stood at 0.839 nM; in assay [2] it was 0.638 nM; in assay [3], 23.6 nM.

Regarding `O=C(NCc1ccn2ccnc2c1)Nc1ccc(C2CCN(C(=O)c3ccc(F)cc3F)CC2)cc1` [Example 722, 1-{4-[1-(2,4-difluorobenzoyl)piperidin-4-yl]phenyl}-3-(imidazo[1,2-a]pyridin-7-ylmethyl)urea], the IC50 was found to be 3.88 nM in assay [1], 1.01 nM in assay [2] and 39.4 nM in assay [3].

In the case of `O=C(NCc1ccn2ccnc2c1)c1ccc(C2CCN(C(=O)C3CCCC3)C2)s1` (stereo not drawn) [Example 769, 5-[1-(cyclopentylcarbonyl)pyrrolidin-3-yl]-N-(imidazo[1,2-a]pyridin-7-ylmethyl)thiophene-2-carboxamide], the IC50 in assay [1] came out at 5.26 nM; in assay [2], 0.705 nM; in assay [3] it was 98.4 nM.

Regarding `COc1ccc(C(=O)N2CCC(c3ccc(C(=O)NCc4ccn5ccnc5c4)s3)C2)cc1` (stereo not drawn) [Example 784, N-(imidazo[1,2-a]pyridin-7-ylmethyl)-5-[1-(4-methoxybenzoyl)pyrrolidin-3-yl]thiophene-2-carboxamide], the IC50 is 2.38 nM in assay [1], 0.455 nM in assay [2] and 22.6 nM in assay [3].

`CCn1cc(-c2ccc(C(=O)NCc3ccn4ccnc4c3)s2)cn1` [Example 295, 5-(1-ethyl-1H-pyrazol-4-yl)-N-(imidazo[1,2-a]pyridin-7-ylmethyl)thiophene-2-carboxamide]: the IC50 was determined as 24.2 nM in assay [1], 0.292 nM in assay [2] and 56.1 nM in assay [3].

With `CC(C)C(=O)N1CCC(c2ccc(C(=O)NCc3ccn4ccnc4c3)s2)C1` (stereo not drawn) [Example 541, N-(imidazo[1,2-a]pyridin-7-ylmethyl)-5-[1-(2-methylpropanoyl)pyrrolidin-3-yl]thiophene-2-carboxamide], the IC50 in assay [1] is 64.5 nM; in assay [2], 0.448 nM; in assay [3], 175 nM.

In the case of `CC/C=C(\C)C(=O)N1CCC(c2ccc(C(=O)NCc3ccn4ccnc4c3)s2)C1` (stereo not drawn) [Example 777, N-(imidazo[1,2-a]pyridin-7-ylmethyl)-5-{1-[(2E)-2-methylpent-2-enoyl]pyrrolidin-3-yl}thiophene-2-carboxamide], the IC50 in assay [1] is 1.26 nM; in assay [2], 0.92 nM; in assay [3] it was 39.4 nM.

Regarding `CC(C)C(C)C(=O)N1CC(c2ccc(C(=O)NCc3ccn4ccnc4c3)cc2)C1` (stereo not drawn) [Example 666, 4-[1-(2,3-dimethylbutanoyl)azetidin-3-yl]-N-(imidazo[1,2-a]pyridin-7-ylmethyl)benzamide], the figures for the IC50 in assay [1], in assay [2] and in assay [3] were 5.18 nM, 0.855 nM and 193 nM, respectively.

Turning to `CC(C)(O)C(=O)N1CC[C@H](Oc2ccc(C(=O)NCc3ccn4ccnc4c3)cc2)C1` [Example 348, 4-{[(3S)-1-(2-hydroxy-2-methylpropanoyl)pyrrolidin-3-yl]oxy}-N-(imidazo[1,2-a]pyridin-7-ylmethyl)benzamide], the IC50 in assay [1] was above 10000 nM; in assay [2] it was 1.52 nM; in assay [3], above 10000 nM.

With `O=C(NCc1ccn2ccnc2c1)Nc1ccc(O[C@@H]2CCN(C(=O)c3ccc(F)cc3F)C2)cc1` [Example 692, 1-(4-{[(3R)-1-(2,4-difluorobenzoyl)pyrrolidin-3-yl]oxy}phenyl)-3-(imidazo[1,2-a]pyridin-7-ylmethyl)urea], the IC50 amounted to 19.8 nM in assay [1], 1.19 nM in assay [2] and 83.9 nM in assay [3].

Consider `O=C(NCc1ccc2ncnn2c1)c1ccc(-c2cnn(CC3COCCO3)c2)s1` (stereo not drawn) [Example 676, 5-[1-(1,4-dioxan-2-ylmethyl)-1H-pyrazol-4-yl]-N-([1,2,4]triazolo[1,5-a]pyridin-6-ylmethyl)thiophene-2-carboxamide], for which the IC50 in assay [1] stood at 78.7 nM; in assay [2] it was 6.98 nM; in assay [3], 126 nM.

Turning to `CCCn1cc(-c2ccc(NC(=O)NCc3ccn4ccnc4c3)cc2)cn1` [Example 487, 1-(imidazo[1,2-a]pyridin-7-ylmethyl)-3-[4-(1-propyl-1H-pyrazol-4-yl)phenyl]urea], the IC50 in assay [1] was determined as 83.3 nM; in assay [2], 0.334 nM; in assay [3], 143 nM.

In the case of `N#Cc1cccc(C(=O)N2CC(c3ccc(C(=O)NCc4ccn5ccnc5c4)cc3)C2)c1` [Example 653, 4-[1-(3-cyanobenzoyl)azetidin-3-yl]-N-(imidazo[1,2-a]pyridin-7-ylmethyl)benzamide], the IC50 was found to be 715 nM in assay [1], 0.893 nM in assay [2] and 831 nM in assay [3].

With `O=C(NCc1ccn2ccnc2c1)c1ccc(C2CCN(C(=O)CC(F)(F)F)C2)s1` (stereo not drawn) [Example 540, N-(imidazo[1,2-a]pyridin-7-ylmethyl)-5-[1-(3,3,3-trifluoropropanoyl)pyrrolidin-3-yl]thiophene-2-carboxamide], the IC50 in assay [1] worked out at 74 nM; in assay [2], 0.305 nM; in assay [3], 266 nM.

With `CC(C)OCCNC(=O)c1ccc(NC(=O)Nc2ccc3nccn3c2)cc1` [Example 12, -[(imidazo[1,2-a]pyridin-6-ylcarbamoyl)amino]-N-[2-(propan-2-yloxy)ethyl]benzamide], the IC50 in assay [1] was found to be 213 nM; in assay [2] it was 0.292 nM; in assay [3], 486 nM.

With `O=C(NCc1ccn2ccnc2c1)c1ccc(C2CCN(C(=O)c3ccccn3)C2)s1` (stereo not drawn) [Example 774, N-(imidazo[1,2-a]pyridin-7-ylmethyl)-5-[1-(pyridin-2-ylcarbonyl)pyrrolidin-3-yl]thiophene-2-carboxamide], the values for the IC50 in assay [1], in assay [2] and in assay [3] were 7.07 nM, 0.46 nM and 103 nM, respectively.

As for `O=C(NCc1ccn2ccnc2c1)c1ccc(C2CCN(C(=O)c3ccc(F)cc3)C2)s1` (stereo not drawn) [Example 763, 5-[1-(4-fluorobenzoyl)pyrrolidin-3-yl]-N-(imidazo[1,2-a]pyridin-7-ylmethyl)thiophene-2-carboxamide], the IC50 is 2.31 nM in assay [1], 0.478 nM in assay [2] and 48.5 nM in assay [3].

As for `CCC(=O)N1CCC(c2ccc(C(=O)NCc3ccn4ccnc4c3)s2)C1` (stereo not drawn) [Example 780, N-(imidazo[1,2-a]pyridin-7-ylmethyl)-5-(1-propanoylpyrrolidin-3-yl)thiophene-2-carboxamide], the figures for the IC50 in assay [1], in assay [2] and in assay [3] were 81.7 nM, 0.382 nM and 250 nM, respectively.

For `O=C(NCc1ccc2nccn2c1)c1cnc(N(C[C@@H]2CCCO2)C(=O)C2CCOCC2)s1` [Example 150, N-(imidazo[1,2-a]pyridin-6-ylmethyl)-2-{[(2S)-tetrahydrofuran-2-ylmethyl](tetrahydro-2H-pyran-4-ylcarbonyl)amino}-1,3-thiazole-5-carboxamide], the results for the IC50 in assay [1], in assay [2] and in assay [3] were 36.2 nM, 3.49 nM and 6110 nM, respectively.
